The structures appear in SMILES notation.

This experiment deals with T1, Recombinant autotaxin (Homo sapiens, UniProt Q13822).
T1 construct: made in house; host or cells: Hi5 insect cells (baculovirus)
In words: Autotaxin assay (Amplex Red, LPC substrate). Format: biochemical. The following applies: recombinant autotaxin, LPC substrate, Amplex Red detection; values given as upper bounds. In a few lines: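 Recombinant autotaxin (Hi5 baculovirus, 16 ng) pre-incubated with compound 30 min at 22° C, then reacted with 75 μM egg LPC for 90 min at 37° C. Choline released is coupled to H2O2 and Amplex Red fluorescence (ex 485/em 612 nm). IC50 from ten 1:3 dilutions from 30 μM, duplicates, normalised to 500 μM C14 LPA.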
By IC50 is commonly meant the concentration needed to halve the response being measured. Turning to `O=C(OCc1ccc2c(c1)OCO2)N1CCN(C2CCN(C(=O)c3ccc4[nH]nnc4c3)CC2)CC1` [Compound 136, 4-[1-(1H-Benzotriazole-5-carbonyl)-piperidin-4-yl]-piperazine-1-carboxylic acid benzo[1,3]dioxol-5-ylmethyl ester], the 50% inhibitory concentration (IC50) was < 10 µM.

With `O=C(CCc1cc(Cl)cc(Cl)c1)N1CCN(C2CCN(C(=O)c3ccc4[nH]nnc4c3)CC2)CC1` [Compound 69, 1-{4-[1-(1H-Benzotriazole-5-carbonyl)-piperidin-4-yl]-piperazin-1-yl}-3-(3,5-dichloro-phenyl)-propan-1-one], the IC50 was < 10 µM.

For `O=C(OCc1cccc(Cl)c1)N1CCN(C2CCN(C(=O)c3ccc4[nH]nnc4c3)CC2)CC1` [Compound 41, 4-[1-(1H-Benzotriazole-5-carbonyl)-piperidin-4-yl]-piperazine-1-carboxylic acid 3-chloro-benzyl ester], the IC50 is < 1 µM.

With `O=C(OCc1ccc(C(F)(F)F)cc1)N1CCC(N2CCN(C(=O)c3ccc4[nH]nnc4c3)CC2)CC1` [Compound 71, 4-[4-(1H-Benzotriazole-5 carbonyl)-piperazin-1-yl]-piperidine-1-carboxylic acid 4-trifluoromethyl-benzyl ester], the IC50 was < 1 µM.

As for `Cc1nc(-c2ccc(C(F)(F)F)cc2)sc1C(=O)N1CCN(C2CCN(C(=O)c3ccc4[nH]nnc4c3)CC2)CC1` [Compound 48, (1H-Benzotriazol-5-yl)-(4-{4-[4-methyl-2-(4-trifluoromethyl-phenyl)-thiazole-5-carbonyl]-piperazin-1-yl}-piperidin-1-yl)-methanone], the concentration for half-maximal inhibition (IC50) was < 10 µM.

On to `O=C(Cc1ccc2[nH]nnc2c1)N1CCC(N2CCN(C(=O)Cc3ccc(C(F)(F)F)cc3)CC2)CC1` [Compound 138, 2-(1H-Benzotriazol-5-yl)-1-(4-{4-[2-(4-trifluoromethyl-phenyl)-acetyl]-piperazin-1-yl}-piperidin-1-yl)-ethanone], for which the IC50 was < 10 µM.

As for `O=C(Nc1ccc(Cl)c(C(F)(F)F)c1)C(=O)N1CCN(C2CCN(C(=O)c3ccc4[nH]nnc4c3)CC2)CC1` [Compound 72, 2-{4-[1-(1H-Benzotriazole-5-carbonyl)-piperidin-4-yl]-piperazin-1-yl}-N-(4-chloro-3-trifluoromethyl-phenyl)-2-oxo-acetamide], the half-inhibitory concentration (IC50) is < 10 µM.

As to `CC1=NN(c2ccc(NC(=O)C3CC(=O)N(C4CCN(C(=O)OCc5cc(Cl)cc(Cl)c5)CC4)C3)cc2)C(=O)C1` (centres unmarked) [Compound 56, 4-{4-[4-(3-Methyl-5-oxo-4,5-dihydro-pyrazol-1-yl)-phenylcarbamoyl]-2-oxo-pyrrolidin-1-yl}-piperidine-1-carboxylic acid 3,5-dichloro-benzyl ester], the IC50 was < 10 µM.

As for `O=C(OCc1cc(Cl)cc(C(F)(F)F)c1)N1CCN(C2CCN(S(=O)(=O)c3ccc4[nH]c(=O)oc4c3)CC2)CC1` [Compound 183, 4-[1-(2-Oxo-2,3-dihydro-benzooxazole-6-sulfonyl)-piperidin-4-yl]-piperazine-1-carboxylic acid 3-chloro-5-trifluoromethyl-benzyl ester], the IC50 was < 10 µM.

For the molecule `CSc1ccc(COC(=O)N2CCN(C3CCN(C(=O)c4ccc5[nH]nnc5c4)CC3)CC2)cc1` [Compound 149, 4-[1-(1H-Benzotriazole-5-carbonyl)-piperidin-4-yl]-piperazine-1-carboxylic acid 4-methylsulfanyl-benzyl ester], the half-maximal inhibitory concentration (IC50) was < 10 µM.

Turning to `O=C(c1ccc2[nH]nnc2c1)N1CCC(N2CCN(C(=O)c3ccccc3-c3ccc(C(F)(F)F)cc3)CC2)CC1` [Compound 124, (1H-Benzotriazol-5-yl)-{4-[4-(4′-trifluoromethyl-biphenyl-2-carbonyl)-piperazin-1-yl]-piperidin-1-yl}-methanone], the IC50 is < 10 µM.

Take `Nc1n[nH]c2ccc(C(=O)N3CCN(C4CCN(C(=O)OCc5ccc(C(F)(F)F)cc5)CC4)CC3)cc12` [Compound 112, 4-[4-(3-Amino-1H-indazole-5-carbonyl)-piperazin-1-yl]-piperidine-1-carboxylic acid 4-trifluoromethyl-benzyl ester]: the half-maximal inhibitory concentration (IC50) was < 10 µM.

For `O=C(c1ccc2[nH]nnc2c1)N1CCC(N2CCN(C(=O)c3ccccc3-c3cccc(C(F)(F)F)c3)CC2)CC1` [Compound 125, (1H-Benzotriazol-5-yl)-{4-[4-(3′-trifluoromethyl-biphenyl-2-carbonyl)-piperazin-1-yl]-piperidin-1-yl}-methanone], the IC50 was < 10 µM.

For `COc1cc(COC(=O)N2CCN(C3CCN(C(=O)c4ccc5[nH]nnc5c4)CC3)CC2)cc(OC)c1` [Compound 150, 4-[1-(1H-Benzotriazole-5-carbonyl)-piperidin-4-yl]-piperazine-1-carboxylic acid 3,5-dimethoxy-benzyl ester], the concentration for half-maximal inhibition (IC50) is < 10 µM.

As for `O=C(Cc1ccc(C(F)(F)F)cc1F)N1CCN(C2CCN(C(=O)c3ccc4[nH]nnc4c3)CC2)CC1` [Compound 103, 1-{4-[1-(1H-Benzotriazole-5-carbonyl)-piperidin-4-yl]-piperazin-1-yl}-2-(2-fluoro-4-trifluoromethyl-phenyl)-ethanone], the IC50 is < 30 µM.

For the molecule `O=C(Nc1ccc2[nH]nnc2c1)c1ccc(N2CCN(C(=O)OCc3ccc(C(F)(F)F)cc3)CC2)nc1` [Compound 111, 4-[5-(1H-Benzotriazol-5-ylcarbamoyl)-pyridin-2-yl]-piperazine-1-carboxylic acid 4-trifluoromethyl-benzyl ester], the concentration for half-maximal inhibition (IC50) is < 10 µM.

Take `Cc1cc(C)cc(COC(=O)N2CCN(C3CCN(C(=O)c4ccc5[nH]nnc5c4)CC3)CC2)c1` [Compound 147, 4-[1-(1H-Benzotriazole-5-carbonyl)-piperidin-4-yl]-piperaizne-1-carboxylic acid 3,5-dimethyl-benzyl ester]: the 50% inhibitory concentration (IC50) is < 1 µM.

In the case of `O=C(OCc1ccc(OC(F)(F)F)cc1)N1CCC(N2CCN(C(=O)c3ccc4[nH]nnc4c3)CC2)CC1` [Compound 76, 4-[4-(1H-Benzotriazole-5-carbonyl)-piperazin-1-yl]-piperidine-1-carboxylic acid 4-trifluoromethoxy-benzyl ester], the IC50 was < 1 µM.

Consider `O=C(Nc1ccc2[nH]c(=O)oc2c1)C1CC(=O)N(C2CCN(C(=O)OCc3ccc(Cl)cc3)CC2)C1` (centres unmarked) [Compound 16, 4-[2-Oxo-4-(2-oxo-2,3-dihydro-benzooxazol-6-ylcarbamoyl)-pyrrolidin-1-yl]-piperidine-1-carboxylic acid 4-chloro-benzyl ester], for which the IC50 is < 10 µM.

On to `O=C(Cc1ccc2[nH]nnc2c1)N1CCC(N2CCN(C(=O)Cc3cc(C(F)(F)F)cc(C(F)(F)F)c3)CC2)CC1` [Compound 141, 2-(1H-Benzotriazol-5-yl)-1-(4-{4-[2-(3,5-bis-trifluoromethyl-phenyl)-acetyl]-piperazin-1-yl}-piperidin-1-yl)-ethanone], for which the IC50 is < 10 µM.

As to `O=C(OCc1ccc(Br)cc1)N1CCC(N2CCN(C(=O)c3ccc4[nH]nnc4c3)CC2)CC1` [Compound 80, 4-[4-(1H-Benzotriazole-5-carbonyl)-piperazin-1-yl]-piperidine-1-carboxylic acid 4-bromo-benzyl ester], the IC50 was < 1 µM.

In the case of `O=C(CCc1ccc(C(F)(F)F)cc1)N1CCC(N2CCN(C(=O)c3ccc4[nH]c(=O)oc4c3)CC2)CC1` [Compound 49, 6-(4-{1-[3-(4-Trifluoromethyl-phenyl)-propionyl]-piperidin-4-yl}-piperazine-1-carbonyl)-3H-benzooxazol-2-one], the 50% inhibitory concentration (IC50) was < 1 µM.

Regarding `O=C(OCc1ccc(Cl)cc1Cl)N1CCN(C2CCN(C(=O)c3ccc4[nH]nnc4c3)CC2)CC1` [Compound 46, 4-[1-(1H-Benzotriazole-5-carbonyl)-piperidin-4-yl]-piperazine-1-carboxylic acid 2,4-dichloro-benzyl ester], the IC50 is < 1 µM.

Consider `O=C(OCc1ccc(Br)cc1)N1CCN(C2CCN(C(=O)c3ccc4[nH]nnc4c3)CC2)CC1` [Compound 155, 4-[1-(1H-Benzotriazole-5-carbonyl)-piperidin-4-yl]-piperazine-1-carboxylic acid 4-bromo-benzyl ester], for which the IC50 was < 1 µM.

Turning to `O=C(OCc1ccc(Cl)c(OC(F)(F)F)c1)N1CCN(C2CCN(C(=O)c3ccc4[nH]nnc4c3)CC2)CC1` [Compound 145, 4-[1-(1H-Benzotriazole-5-carbonyl)-piperidin-4-yl]-piperazine-1-carboxylic acid 4-chloro-3-trifluoromethoxy-benzyl ester], the half-inhibitory concentration (IC50) was < 10 µM.

`O=C(OCc1cc(Cl)cc(Cl)c1)N1CCC(C2CCN(C(=O)c3ccc4[nH]nnc4c3)CC2)CC1` [Compound 12, 1′-(1H-Benzotriazole-5-carbonyl)-[4,4′]bipiperidinyl-1-carboxylic acid 3,5-dichloro-benzyl ester]: the 50% inhibitory concentration (IC50) was < 1 µM.

Take `O=C(OCc1c(F)c(F)c(C(F)(F)F)c(F)c1F)N1CCN(C2CCN(C(=O)c3ccc4[nH]nnc4c3)CC2)CC1` [Compound 114, 4-[1-(1H-Benzotriazole-5-carbonyl)-piperidin-4-yl]-piperazine-1-carboxylic acid 2,3,5,6-tetrafluoro-4-trifluoromethyl-benzyl ester]: the concentration for half-maximal inhibition (IC50) was < 1 µM.

For the molecule `O=C(Nc1ccc(N2CCN(C(=O)OCc3ccc(C(F)(F)F)cc3)CC2)nc1)c1ccc2[nH]nnc2c1` [Compound 110, 4-{5-[(1H-Benzotriazole-5-carbonyl)-amino]-pyridin-2-yl}-piperazine-1-carboxylic acid 4-trifluoromethyl-benzyl ester], the concentration for half-maximal inhibition (IC50) was < 30 µM.

As to `CC(C)c1ccc(CCC(=O)N2CCC(N3CCN(C(=O)c4ccc5[nH]nnc5c4)CC3)CC2)cc1` [Compound 84, 1-{4-[4-(1H-Benzotriazole-5-carbonyl)-piperazin-1-yl]-piperidin-1-yl}-3-(4-isopropyl-phenyl)-propan-1-one], the IC50 was < 1 µM.

These data come from US9452997B2, “Piperidine and piperazine derivatives as autotaxin inhibitors” (Merck Patent GmbH, priority 2009, dated 2016).
